The source of these data is publication PMC12250965, “Design and Synthesis of Sulfonium and Selenonium Derivatives Bearing 3′,5′-O-Benzylidene Acetal Side Chain Structure as Potent α-Glucosidase Inhibitors” (Molecules, 2025).

Experiment [1] has as its target rat intestinal maltase. The experiment in a line: In vitro α-glucosidase inhibition assay, rat intestinal maltase. The note with it: rat small intestinal brush border membrane vesicles; maltose substrate; mean ± SD (n = 3); read-out: IC50 against maltase. The experiment is classed as biochemical.
Experiment [2] concerns the target T1, rat intestinal sucrase (Rattus norvegicus, UniProt P23739).
T1 construct: rat small intestinal brush border membrane vesicles were first prepared; from tissue; host or cells: rat small intestine, brush border membrane vesicles
Nature of the experiment: In vitro α-glucosidase inhibition assay, rat intestinal sucrase. Type of experiment: biochemical. The settings on record: rat small intestinal brush border membrane vesicles; sucrose substrate; mean ± SD (n = 3); read-out: IC50 against sucrase.

A further experiment has as its system sucrose-loaded mice. The experiment in a line: Sucrose loading test (hypoglycemic effect). Type of experiment: in vivo, ICR mice. The settings on record: sucrose loading […] p.o. On the procedure: Research has shown a strong association between the 2 h postprandial blood glucose level and the risk of cardiovascular events, diabetic microvascular complications such as retinopathy, and the progression of macrovascular diseases. […] Considering this underlying pathological process, α-glucosidase inhibitors, which efficiently regulate postprandial glucose fluctuations, hold significant therapeutic promise for alleviating diabetes-related complications. […] Subsequently, doses were reduced to 1.0 mg/kg.
(§1) The animal experimental protocols in this study were approved by the Experimental Animal Center of Shanghai Institute of Materia Medica (Shanghai, China). Male ICR (Institute of Cancer Research) mice (29−33 g) after an overnight fast were used for acute maltose and sucrose loading tests. In the maltose loading test, maltose (2.0 mpk of body weight) and the inhibitors and voglibose were dissolved in distillation−distillation water and administered to the mice via a stomach tube. A control group was loaded with distillation−distillation water. In the sucrose loading test, sucrose (2.5 g/kg of body weight) and the inhibitor miglitol were dissolved in distillation−distillation water and administered to the mice via a stomach tube. A control group was loaded with distillation−distillation water. Blood samples for glucose measurements were obtained from the tail vein at 0, 15, 30, 60, and 120 min after maltose and sucrose loading. The blood glucose levels were measured by a portable kit, StatStrip Xpress (Nova Biomedical Co., Ltd., Waltham, MA, USA). The AUC over was calculated by the trapezoidal method.

The subject of the next experiment is maltose-loaded mice. The experiment in a line: Maltose loading test (hypoglycemic effect). The settings on record: maltose loading 2.0 g/kg, 1.0 mpk, 1 mg/kg. The experiment is classed as in vivo, ICR mice. On the procedure: A maltose loading test on compounds 10, 20c, neoponkoranol, and positive control (voglibose) was conducted to further evaluate their in vivo hypoglycemic effects against maltase.
as §1, with “In the maltose loading test, maltose (2.0 mpk of body weight) and the inhibitors and voglibose were dissolved in distillation−distillation water and administered to the mice via a stomach tube.” left out

Experiment [3] deals with rat intestinal maltase. The settings on record: literature value ^[a]; read-out: IC50 against maltase (converted); cited from earlier work.
The target of experiment [4] is T1, rat intestinal sucrase. The settings on record: literature value ^[a]; read-out: IC50 against sucrase (converted); cited from earlier work.

Each structure is given as a SMILES string. Where two headings read alike, the source gives them in different places.

T1 sequence (P23739 whole entry): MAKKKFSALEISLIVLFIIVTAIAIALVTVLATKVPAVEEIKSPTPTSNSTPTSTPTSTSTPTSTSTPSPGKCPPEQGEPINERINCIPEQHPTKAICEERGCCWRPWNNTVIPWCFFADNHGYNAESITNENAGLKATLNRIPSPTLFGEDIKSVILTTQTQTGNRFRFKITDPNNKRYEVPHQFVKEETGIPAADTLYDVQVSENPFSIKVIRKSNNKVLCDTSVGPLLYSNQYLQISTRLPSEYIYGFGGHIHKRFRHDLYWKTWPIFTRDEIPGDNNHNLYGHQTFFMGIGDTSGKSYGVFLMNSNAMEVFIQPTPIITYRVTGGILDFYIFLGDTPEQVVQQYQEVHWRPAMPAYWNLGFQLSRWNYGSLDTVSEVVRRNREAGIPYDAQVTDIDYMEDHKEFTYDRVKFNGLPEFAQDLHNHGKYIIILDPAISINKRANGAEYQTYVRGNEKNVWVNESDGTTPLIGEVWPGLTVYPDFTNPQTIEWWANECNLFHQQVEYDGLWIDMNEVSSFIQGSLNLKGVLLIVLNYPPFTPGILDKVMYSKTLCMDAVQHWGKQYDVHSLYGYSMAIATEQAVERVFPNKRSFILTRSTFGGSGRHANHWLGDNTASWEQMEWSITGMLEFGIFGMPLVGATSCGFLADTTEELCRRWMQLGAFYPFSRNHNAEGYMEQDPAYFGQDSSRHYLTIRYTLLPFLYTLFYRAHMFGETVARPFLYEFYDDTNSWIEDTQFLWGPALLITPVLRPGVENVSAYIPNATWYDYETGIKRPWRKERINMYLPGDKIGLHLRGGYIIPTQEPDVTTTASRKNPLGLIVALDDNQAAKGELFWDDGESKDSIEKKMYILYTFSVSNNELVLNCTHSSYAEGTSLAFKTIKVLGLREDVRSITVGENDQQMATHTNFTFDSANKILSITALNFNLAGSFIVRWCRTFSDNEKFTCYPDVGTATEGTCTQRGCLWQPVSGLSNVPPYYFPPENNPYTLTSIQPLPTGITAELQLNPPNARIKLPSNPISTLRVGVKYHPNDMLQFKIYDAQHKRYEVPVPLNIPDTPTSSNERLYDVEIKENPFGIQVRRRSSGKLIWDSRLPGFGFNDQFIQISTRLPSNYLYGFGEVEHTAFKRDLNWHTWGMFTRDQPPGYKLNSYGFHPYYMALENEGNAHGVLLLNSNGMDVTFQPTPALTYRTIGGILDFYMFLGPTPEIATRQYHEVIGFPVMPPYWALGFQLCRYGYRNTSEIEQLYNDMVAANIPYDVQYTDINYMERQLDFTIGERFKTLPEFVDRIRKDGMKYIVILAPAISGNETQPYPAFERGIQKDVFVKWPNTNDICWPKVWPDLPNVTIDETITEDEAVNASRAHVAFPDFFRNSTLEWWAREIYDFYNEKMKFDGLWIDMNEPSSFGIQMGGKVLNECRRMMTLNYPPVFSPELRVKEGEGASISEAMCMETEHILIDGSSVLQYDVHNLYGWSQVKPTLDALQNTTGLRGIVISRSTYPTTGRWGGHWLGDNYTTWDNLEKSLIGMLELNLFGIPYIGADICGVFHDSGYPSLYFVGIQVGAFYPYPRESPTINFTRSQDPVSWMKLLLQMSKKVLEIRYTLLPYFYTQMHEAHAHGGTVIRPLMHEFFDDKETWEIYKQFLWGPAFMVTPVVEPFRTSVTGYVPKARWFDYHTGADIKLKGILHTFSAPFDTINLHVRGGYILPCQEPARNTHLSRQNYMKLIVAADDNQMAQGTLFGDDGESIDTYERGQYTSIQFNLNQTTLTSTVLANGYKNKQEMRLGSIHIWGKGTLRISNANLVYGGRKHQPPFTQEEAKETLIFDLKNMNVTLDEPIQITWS

Usually IC50 stands for the concentration at which inhibition is half-maximal. For the compound `OC[C@@H]1[C@@H](O)[C@H](O)C[S@@+]1C[C@@H](O)[C@@H](O)[C@H](O)[C@@H](O)CO` [neoponkoranol], the IC50 was 7.3 ± 1.5 µM at rat intestinal maltase [1], 2.8 ± 0.5 µM on rat intestinal sucrase [2], 6.9 µM on rat intestinal maltase [3] and 2.3 µM on rat intestinal sucrase [4]. The “Declined Rate of Blood Glucose Levels, 15 min” value with sucrose-loaded mice (1.0 mpk) was 33.5%; in the experiment with sucrose-loaded mice (10.0 mpk), 42.8%; in the experiment on maltose-loaded mice (15 min), 42.3%. The “Declined Rate of Blood Glucose Levels, 30 min” value with sucrose-loaded mice (1.0 mpk) amounted to 36.4%; with sucrose-loaded mice (10.0 mpk), 49.5%; with maltose-loaded mice (30 min), 33.9%. Further, the “Declined Rate of Blood Glucose Levels, 60 min” value with sucrose-loaded mice (1.0 mpk) was determined as 27.1%; in the experiment on sucrose-loaded mice (10.0 mpk), 43.5%; in the experiment with maltose-loaded mice (60 min) it was 19.4%. Besides, the “Declined Rate of AUC” value in the experiment with sucrose-loaded mice (1.0 mpk) came out at 27.1%; in the experiment on sucrose-loaded mice (10.0 mpk), 39.4%; with maltose-loaded mice (AUC), 21.5%.
